Reference: US20240102075A1, “METHOD FOR QUANTIFYING 25-HYDROXYVITAMIN D, HYDROXYLASE, QUANTIFICATION COMPOSITION, QUANTIFICATION KIT, ELECTRODE, SENSOR CHIP, AND SENSOR” (KIKKOMAN CORPORATION, priority 2021, published 2024)

Tests used:
[1] = cited from earlier work
[2] = hydroxylase activity using ferredoxin as a mediator, absorbance at 340 nm; format: biochemical; details: 0.5 mM 25-hydroxyvitamin D3, ferredoxin/ferredoxin reductase/NADPH, 90 seconds, 30° C.
Procedure: VDH obtained by the above-described method and ferredoxin were used to measure hydroxylase activity using 25-hydroxyvitamin D3, which is a vitamin D derivative, as a substrate.
4.19 mg of 25-hydroxyvitamin D3 was dissolved in 1 ml of DMSO (final concentration: 10 mM). Since 25-hydroxyvitamin D3 is lipid-soluble, it was diluted to 1 mM (concentration at the time of measurement: 0.5 mM) using 4.0% (v/v) TritonX-100 solution to maintain solubility.
After incubating 500 μl of the measurement reagent consisting of the composition of Table 2 at 30° C. for 3 minutes, 500 μl of the substrate reagent was added, and the absorbance (Abs) at the wavelength 340 nm was measured over time for 90 seconds using a spectrophotometer (U-3900, manufactured by Hitachi High-Tech Science Corporation). […] Therefore, it was shown that 25-hydroxyvitamin D can be quantified by hydroxylase activity of VDH using ferredoxin as a mediator.

25-hydroxyvitamin D
blood half-life ([1]; in vivo): 2-3 weeks

1,25-dihydroxyvitamin D
half-life in the blood ([1]; in blood): about 15 hours

B1: VDH: Vitamin D hydroxylase derived from Pseudonocardia autotrophica NBRC12743 strain, SEQ ID NO: 1, expressed in E. coli (protein, listed as Pseudonocardia autotrophica)
chain: MALTTTGTEQHDLFSGTFWQNPHPAYAALRAEDPVRKLALPDGPVWLLTRYADVREAFVDPRLSKDWRHTLPEDQRADMPATPTPMMILMDPPDHTRLRKLVGRSFTVRRMNELEPRITEIADGLLAGLPTDGPVDLMREYAFQIPVQVICELLGVPAEDRDDFSAWSSVLVDDSPADDKNAAMGKLHGYLSDLLERKRTEPDDALLSSLLAVSDEDGDRLSQEELVAMAMLLLIAGHETTVNLIGNGVLALLTHPDQRKLLAEDPSLISSAVEEFLRFDSPVSQAPIRFTAEDVTYSGVTIPAGEMVMLGLAAANRDADWMPEPDRLDITRDASGGVFFGHGIHFCLGAQLARLEGRVAIGRLFADRPELALAVGLDELVYRESTLVRGLSRMPVTMGPRSA
change in absorbance (A340) compared to the blank [2]: significant change in absorbance
